{"source": "patent EP3485891A1", "about": "“WOUND TREATMENT COMPOSITION CONTAINING ULDAVIOSIDE A COMPOUND” (Elcubio Co., Ltd., priority 2016, dated 2018)", "key": {"[1]": {"tested_on": "hack-induced animal tissue", "experiment": "Histological change of hack wound tissue (H&E stain, Masson's trichrome stain)", "type": "in vivo, Sprague-Dawley white rats", "description": "In order to investigate a hack healing effect of the uldavioside A compound of the present invention, a histological change was observed using the hack-induced animal tissue.\nThe collected tissue was fixed by treatment with 10% formalin for 24 hours. The fixed tissue was embedded with paraffin, and cut into a 5 µm thickness to obtain tissue sections. The tissue sections were deparaffinized, hydrated, and washed, and then subjected to hematoxylin & eosin stain or Masson's trichrome stain.\nMasson's trichrome stain is used to investigate collagen in the tissue, and collagenosis means that the wound in the dermis healed and the functions of the tissue were restored."}, "[2]": {"tested_on": "VEGF", "experiment": "Immunohistochemistry of hack wound tissue sections", "type": "in vivo, Sprague-Dawley white rats", "conditions": "IHC, tissue sections on day 10, compared with the control, FIG. 7A", "from_the_text": "(§1) In order to investigate a hack healing effect of the uldavioside A compound of the present invention, the expression changes of proteins associated with angiogenesis and tissue regeneration were observed.\n(§2) The tissue sections on day 10, which were fabricated in Experimental Example 4-2 above, were deparaffinized, hydrated, and washed, and were then subjected to immunohistochemistry (IHC) using antibodies of vascular endothelial growth factor (VEGF) and CD31, which are proteins associated with angiogenesis in tissue, and basic fibroblast growth factor (bFGF) and β-catenin, which are proteins associated with tissue regeneration."}, "[3]": {"tested_on": "bFGF", "experiment": "Immunohistochemistry of hack wound tissue sections", "type": "in vivo, Sprague-Dawley white rats", "conditions": "IHC, tissue sections on day 10, compared with the control, FIG. 7B", "from_the_text": "as §1, §2"}, "[4]": {"tested_on": "β-catenin", "experiment": "Immunohistochemistry of hack wound tissue sections", "type": "in vivo, Sprague-Dawley white rats", "conditions": "IHC, tissue sections on day 10, compared with the control, FIG. 7B", "from_the_text": "as §1, §2"}, "[5]": {"tested_on": "CD31", "experiment": "Immunohistochemistry of hack wound tissue sections", "type": "in vivo, Sprague-Dawley white rats", "conditions": "IHC, tissue sections on day 10, compared with the control, FIG. 7A", "from_the_text": "as §1, §2"}, "[6]": {"tested_on": "HDF cells", "experiment": "Cytoprotective activity against glucose oxidative stress in high-glucose environment (MTT)", "type": "cell-based, human", "conditions": "50 mM D-glucose, 10 µM and 20 µM, 7 mU/mℓ glucose oxidase, 24 hours, FIG. 8A", "description": "(§3) In order to investigate the activity of the uldavioside A compound of the present invention, animal cells were incubated. Here, C212 cells, as myoblasts, and NIH3T3 cells and human diploid fibroblasts (HDFs), as fibroblasts, were used as the animal cells. Each type of cells were incubated in a 5% CO2 incubator containing Dulbecco's modified eagle's medium (DMEM) supplemented with 10% fetal bovine serum (FBS), 100 U/mℓ penicillin, and 100 µg/mℓ streptomycin at 37 °C.\n(§4) The cytoprotective activity of the uldavioside A compound of the present invention against glucose oxidative stress was investigated.\n(§5) The C2C12 cells and HDF cells incubated in Experimental Example 1 were dispensed at 1×10^5 per well in a 48-well plate, respectively, and then incubated for 24 hours. Thereafter, each well was treated with 50 mM D-glucose to create a high-glucose environment. Then, the cells were treated with the uldavioside A compound at 10 µM and 20 µM, and after 1 hour, were treated with 7 mU/mℓ glucose oxidase, followed by incubation for 24 hours. Here, non-treated C2C12 or HDF cells were used as control 1, high-glucose state cells were used as control 2, and high-glucose state cells treated with glucose oxidase were used as control 3. […] Thereafter, the culture liquid was removed and the formed formazan precipitate was dissolved in 200 µℓ of DMSO, and then the absorbance was measured at 570 nm."}, "[7]": {"tested_on": "NIH3T3 cells", "experiment": "MTT assay, cytotoxicity", "type": "cell-based", "conditions": "1 µM and 10 µM, 24 hours", "description": "as §3\n(§6) The cytotoxicity of the uldavioside A compound of the present invention was investigated using a 3-(4,5-dimethylthiazol-2-yl)-2,5-diphenyltetrazolium bromide (MTT) assay.\n(§7) The C2C12 and NIH3T3 cells incubated in Experimental Example 1 above were dispensed at 1×10^5 cells per well in a 48-well plate and then incubated for 24 hours. Thereafter, DMEM medium containing 0.5% FBS, 100 U/mℓ penicillin, and 100 µg/mℓ streptomycin was placed therein, and then the cells were incubated for 18 hours. After the 18-hour incubation, the cells were treated with an uldavioside A compound at 1 µM and 10 µM and then incubated for 24 hours. Here, non-treated C2C12 and NIH3T3 cells were used as controls. After 24 hours, the cells were treated with an MTT solution at 100 µg/mℓ and incubated at 37 °C for 3 hours. Thereafter, the culture liquid was removed and the formed formazan precipitate was dissolved in 200 µℓ of dimethyl sulfoxide (DMSO), and then the absorbance was measured at 570 nm."}, "[8]": {"tested_on": "C2C12 cells", "experiment": "MTT assay, cytotoxicity", "type": "cell-based", "conditions": "1 µM and 10 µM, 24 hours", "description": "as §3, §6, §7"}, "[9]": {"tested_on": "C2C12 cells", "experiment": "Cytoprotective activity against glucose oxidative stress in high-glucose environment (MTT)", "type": "cell-based", "conditions": "50 mM D-glucose, 10 µM and 20 µM, 7 mU/mℓ glucose oxidase, 24 hours, FIG. 8B", "description": "as §3, §4, §5"}, "[10]": {"tested_on": "Sprague-Dawley white rats", "experiment": "Full-thickness hack wound healing, visual observation and wound size quantification", "type": "in vivo", "conditions": "rat hind leg, 3 cm-diameter full-thickness hack, ointment containing 0.025 wt%, topical; days 3, 7, 10, 14; compared with the control (ointment without compound), FIG. 5", "description": "In order to investigate a wound healing effect of the uldavioside A compound of the present invention, an animal experiment was conducted.\nA hind leg of 7-8 week-old Sprague-Dawley white rats was shaved, and disinfected with 70% alcohol, and then a 3 cm-diameter circular full-thickness hack was made. After the full-thickness hack was made, the rats were randomly assigned and divided into a control treated without the uldavioside A compound of the present invention and a treatment group. For the treatment group, on the day of hack induction, the wound was treated with an ointment (Preparation Example 1-2 below) containing 0.025 wt% of the uldavioside A compound, wrapped with sterilized Korean traditional paper, and fixed with a band and a bandage to maintain a wet environment. For the control, the wound was treated with an ointment not containing the uldavioside A compound. Thereafter, on days 3, 7, 10, and 14 of wound induction, the wound site was observed, and the size of the wound site was quantified."}, "[11]": {"tested_on": "NIH3T3 cells", "experiment": "Wound healing (scratch) assay under inflammatory stress (LPS)", "type": "cell-based", "conditions": "10 µM, 1 hour pre-incubation, then 10 µg/mℓ LPS, 0, 12, 24 hours, compared with the controls (LPS only), FIG. 3C, 3D, migration activity higher than in C2C12", "description": "as §3\n(§8) In order to investigate a wound healing effect according to the treatment with the uldavioside A compound of the present invention, a wound healing assay was conducted.\n(§9) The C2C12 and NIH3T3 cells incubated in Experimental Example 1 above were dispensed at 1×10^6 cells per well in a 12-well plate, and then stabilized through incubation for 24 hours. Thereafter, DMEM medium containing 0.5% FBS, 100 U/mℓ penicillin, and 100 µg/mℓ streptomycin was placed therein, and then the cells were incubated for 18 hours. After the 18-hour incubation, a scratch with about 0.9 mm was made in the center of each well with growing cells, and the cells were treated with a 10 µM uldavioside A compound, followed by pre-incubation for 1 hour. After 1 hour, the cells were treated with 10 µg/mℓ lipopolysaccharide (LPS) for inflammatory stress stimulation, and then migration of the cells was observed while the cells were incubated. […]"}, "[12]": {"tested_on": "C2C12 cells", "experiment": "Wound healing (scratch) assay under inflammatory stress (LPS)", "type": "cell-based", "conditions": "10 µM, 1 hour pre-incubation, then 10 µg/mℓ LPS, 0, 12, 24 hours, compared with the controls (LPS only), FIG. 3A, 3B", "description": "as §3, §8, §9"}, "[13]": {"tested_on": "diabetes-induced animal models", "experiment": "Diabetic ulcer healing, circular cut in streptozotocin-induced diabetic rats", "type": "in vivo, Sprague-Dawley white rats", "conditions": "dorsal circular cut 1 or 1.5 cm, ointment containing 0.025 wt%, topical, 8 days at intervals of 2 days, compared with the control, FIG. 9", "description": "In order to investigate a diabetic ulcer healing effect of the uldavioside A compound of the present invention, an animal experiment was conducted.\n7-week-old Sprague-Dawley white rats with a body weight of about 300 g were intraperitoneally injected with 60 mg/kg streptozotocin to induce diabetes. After three days, only white rates with a blood glucose level of 300 mg/dℓ or higher were selected by collecting venous blood from the tail vein and measuring the glucose level using a blood glucose meter. The dorsal part of each of the selected white rats was shaved, and a circular cut with a diameter of 1 or 1.5 cm was made on the dorsal part 4-5 cm away from the ear using a puncher. After the circular cut was made, the white rats were randomly assigned and divided into a control treated without the uldavioside A compound of the present invention and a treatment group. For the treatment group, on the day of circular cut induction, the cut was treated with an ointment containing 0.025 wt% of the uldavioside A compound (Preparation Example 1-2 below), wrapped with sterilized Korean traditional paper, and fixed with a band and a bandage to maintain a wet environment. For the control, the cut was treated with an ointment not containing the uldavioside A compound."}, "[14]": {"tested_on": "NIH3T3 cells", "experiment": "Wound healing (scratch) assay under glucose oxidative stress (glucose oxidase)", "type": "cell-based", "conditions": "10 µM, 7 mU/mℓ glucose oxidase, compared with the controls, FIG. 4, migration activity higher than in C2C12", "description": "as §3\n(§10) The C2C12 and NIH3T3 cells incubated in Experimental Example 1 above were dispensed at 1×10^6 cells per well in a 12-well plate, and then stabilized through incubation for 24 hours. Thereafter, DMEM medium containing 0.5% FBS, 100 U/mℓ penicillin, and 100 µg/mℓ streptomycin was placed therein, and then the cells were incubated for 18 hours. After the 18-hour incubation, a scratch with about 0.9 mm was made in the center of each well with growing cells, and the cells were treated with a 10 µM uldavioside A compound, followed by pre-incubation for 1 hour. […] Here, at 0, 12, and 24 hours, the cells were fixed with a fixative (2% formaldehyde and 0.2% glutaraldehyde) and stained with 0.3% crystal violet, and then, the migration of the cells was checked using a microscope, and the reduction in area due to the migration of the cells into a wounded site. […]"}, "[15]": {"tested_on": "C2C12 cells", "experiment": "Wound healing (scratch) assay under glucose oxidative stress (glucose oxidase)", "type": "cell-based", "conditions": "10 µM, 7 mU/mℓ glucose oxidase, compared with the controls, FIG. 4A, 4B", "description": "as §3, §10"}}}
{"smiles": "OCC1(O)COC(Oc2cc(O)cc3c2CC(O)C(c2ccc(O)c(O)c2)O3)C1O", "note": "(stereo not drawn) [uldavioside A compound, uldavioside A]", "values": [{"measurement": "inflow of immune cells", "setting": "[1]; H&E stain, day 3 after hack induction, ointment 0.025 wt%, FIG. 6(A)", "result": "reduced"}, {"measurement": "angiogenesis and granulation tissues formation", "setting": "[1]; H&E stain, day 7 after hack induction, ointment 0.025 wt%, FIG. 6(A)", "result": "actively progressing"}, {"measurement": "proliferation of fibroblasts", "setting": "[1]; H&E stain, day 10 after hack induction, ointment 0.025 wt%, FIG. 6(A)", "result": "active proliferation of fibroblasts were observed"}, {"measurement": "amount of collagen stained", "setting": "[1]; Masson's trichrome stain, day 7 after hack induction, compared with the control, FIG. 6(B)", "result": "remarkably increased"}, {"measurement": "collagenosis", "setting": "[1]; Masson's trichrome stain, day 17, FIG. 6(B)", "result": "collagenosis in most tissues"}, {"measurement": "expression level of VEGF", "setting": "[2]", "result": "significantly increased"}, {"measurement": "expression level of bFGF", "setting": "[3]", "result": "significantly increased"}, {"measurement": "expression level of β-catenin", "setting": "[4]", "result": "significantly increased"}, {"measurement": "expression level of CD31", "setting": "[5]", "result": "significantly increased"}, {"measurement": "reduction in cell viability by glucose oxidative stress", "setting": "[6]", "result": "inhibited in a dose-dependent manner"}, {"measurement": "cytotoxicity", "setting": "[7]; MTT", "result": "no cytotoxicity"}, {"measurement": "cell viability", "setting": "[7]; compared with the controls (non-treated cells), FIG. 2B", "result": "increased"}, {"measurement": "cytotoxicity", "setting": "[8]; MTT", "result": "no cytotoxicity"}, {"measurement": "cell viability", "setting": "[8]; compared with the controls (non-treated cells), FIG. 2A", "result": "increased"}, {"measurement": "reduction in cell viability by glucose oxidative stress", "setting": "[9]", "result": "inhibited in a dose-dependent manner"}, {"measurement": "wound site (size of the wound site)", "setting": "[10]", "result": "started healing from day 7, and almost healed on day 14"}, {"measurement": "cell migration", "setting": "[11]", "result": "increased"}, {"measurement": "cell migration", "setting": "[12]", "result": "increased"}, {"measurement": "wound site (wound size)", "setting": "[13]", "result": "started healing from day 4 and the wound size remarkably decreased"}, {"measurement": "cell migration", "setting": "[14]", "result": "increased"}, {"measurement": "cell migration", "setting": "[15]", "result": "increased"}]}
